In the Kinase Knowledgebase extract (Sharma et al. 2016):

Tests used:
[1] = molecular target: EGFR (human), P00533 [Inhibition of EGFR(L858RT/790M) Kinase Activity]
EGFR (human) = EGFR (human) (UniProt P00533); conditions: hcc827
[2] = molecular target: EGFR (human), P00533 [WT]
Chain of EGFR (human), P00533 [WT] (P00533 whole entry, looked up): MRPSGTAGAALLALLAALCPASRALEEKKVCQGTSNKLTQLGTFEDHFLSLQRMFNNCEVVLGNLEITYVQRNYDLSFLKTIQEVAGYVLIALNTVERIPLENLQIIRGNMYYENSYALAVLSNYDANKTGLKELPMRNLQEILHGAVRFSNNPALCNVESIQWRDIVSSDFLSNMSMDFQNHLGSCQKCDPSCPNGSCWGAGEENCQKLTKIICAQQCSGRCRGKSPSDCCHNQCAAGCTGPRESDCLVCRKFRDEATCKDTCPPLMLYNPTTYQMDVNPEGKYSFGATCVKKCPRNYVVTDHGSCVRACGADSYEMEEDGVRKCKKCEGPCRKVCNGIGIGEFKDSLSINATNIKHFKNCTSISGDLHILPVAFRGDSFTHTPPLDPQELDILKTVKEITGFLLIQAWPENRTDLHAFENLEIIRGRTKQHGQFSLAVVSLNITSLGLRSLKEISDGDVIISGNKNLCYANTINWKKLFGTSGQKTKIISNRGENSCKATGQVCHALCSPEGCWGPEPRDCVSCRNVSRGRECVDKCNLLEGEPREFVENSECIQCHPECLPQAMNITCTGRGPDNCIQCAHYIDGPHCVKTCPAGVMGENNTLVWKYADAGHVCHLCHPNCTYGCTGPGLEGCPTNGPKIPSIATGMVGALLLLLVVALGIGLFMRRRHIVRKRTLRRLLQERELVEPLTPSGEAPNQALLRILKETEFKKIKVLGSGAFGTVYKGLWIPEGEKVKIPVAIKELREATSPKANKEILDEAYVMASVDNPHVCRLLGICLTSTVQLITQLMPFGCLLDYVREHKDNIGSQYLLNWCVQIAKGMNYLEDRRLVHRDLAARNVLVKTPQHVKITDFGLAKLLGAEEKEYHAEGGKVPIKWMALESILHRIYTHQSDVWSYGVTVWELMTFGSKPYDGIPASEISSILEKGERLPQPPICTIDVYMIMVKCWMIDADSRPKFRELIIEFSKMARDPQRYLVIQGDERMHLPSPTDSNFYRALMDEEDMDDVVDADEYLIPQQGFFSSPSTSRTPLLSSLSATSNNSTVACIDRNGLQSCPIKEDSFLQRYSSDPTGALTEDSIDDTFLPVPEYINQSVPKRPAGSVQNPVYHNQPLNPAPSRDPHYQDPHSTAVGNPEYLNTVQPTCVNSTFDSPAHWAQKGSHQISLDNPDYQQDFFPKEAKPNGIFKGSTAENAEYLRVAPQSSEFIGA

Chain of EGFR (human) (P00533 whole entry, looked up): as above
Chain of EGFR (human), P00533 [Inhibition of EGFR(L858RT/790M) Kinase Activity] (P00533 whole entry, looked up, change not shown): as the sequence (P00533 whole entry, looked up) above

| Structure (SMILES) | IC50 [1] | IC50 (EGFR (human)) | IC50 [2] |
| --- | --- | --- | --- |
| CN1CCN(C/C=C/C(=O)N2CCc3c(sc4ncnc(N[C@H](CO)c5ccccc5)c34)C2)CC1 | 500 to 2500 nM | 1 to 99 nM | < 59 nM |
| CC[C@@H](Nc1ncnc2sc3c(c12)CCN(C(=O)/C=C/CN(CC)CC)C3)c1ccccc1 | 500 to 2500 nM | 1 to 99 nM | < 59 nM |
| C=CC(=O)Nc1cccc(-c2c(-c3ccccc3)oc3ncnc(N[C@H](C)c4ccccc4)c23)c1 | 500 to 2500 nM | 1 to 99 nM | 101 to 900 nM |
| CCN(CC)C/C=C/C(=O)N1CCc2c(sc3ncnc(N[C@H](CO)c4ccccc4)c23)C1 | 500 to 2500 nM | 1 to 99 nM | < 59 nM |
| C=CC(=O)N1CCc2c(sc3ncnc(N[C@H](CC)c4ccccc4)c23)C1 | 500 to 2500 nM | 1 to 99 nM | < 59 nM |
| C[C@@H](Nc1ncnc2sc3c(c12)CCN(C(=O)/C=C/CN(CCO)CCO)C3)c1ccccc1 | 500 to 2500 nM | 1 to 99 nM | < 59 nM |
| C[C@@H](Nc1ncnc2sc3c(c12)CCN(C(=O)/C=C/CN(C)C)C3)c1ccccc1 | 500 to 2500 nM | 1 to 99 nM | < 59 nM |
| O=C(/C=C/CN1CCOCC1)N1CCc2c(sc3ncnc(N[C@H](CO)c4ccccc4)c23)C1 | 500 to 2500 nM | 1 to 99 nM | < 59 nM |
| C=CC(=O)N1CCc2c(sc3ncnc(N[C@H](CO)Cc4ccccc4)c23)C1 | 500 to 2500 nM | 301 to 999 nM | < 59 nM |
| CC#CC(=O)Nc1cccc(-c2c(-c3ccccc3)oc3ncnc(N[C@H](CO)c4ccccc4)c23)c1 | 500 to 2500 nM | 1 to 99 nM | < 59 nM |

Now from value to compound:

| IC50 [1] | IC50 (EGFR (human)) | IC50 [2] | Structure (SMILES) |
| --- | --- | --- | --- |
| 500 to 2500 nM | 1 to 99 nM | < 59 nM | CN(C)C/C=C/C(=O)N1CCc2c(sc3ncnc(N[C@H](COCc4ccccc4)c4ccccc4)c23)C1 |
| 10 to 499 nM | 1 to 99 nM | < 59 nM | C=CC(=O)N1CCc2c(sc3ncnc(N[C@H](CCO)c4ccccc4)c23)C1 |
| 10 to 499 nM | 1 to 99 nM | < 59 nM | CN(C)C/C=C/C(=O)N1CCc2c(sc3ncnc(Nc4ccc(F)c(Cl)c4)c23)C1 |
| 10 to 499 nM | 1 to 99 nM | < 59 nM | CN(C)C/C=C/C(=O)Nc1cccc(-c2c(-c3ccccc3)oc3ncnc(N[C@H](CO)c4ccccc4)c23)c1 |
| 10 to 499 nM | 1 to 99 nM | < 59 nM | CN(C)C/C=C/C(=O)N1CCc2c(sc3ncnc(N[C@H](COCc4cccc(F)c4)c4ccccc4)c23)C1 |
| 10 to 499 nM | 1 to 99 nM | < 59 nM | C=CC(=O)N1CCc2c(sc3ncnc(N[C@H](COCc4ccccc4)c4ccccc4)c23)C1 |
| 10 to 499 nM | 1 to 99 nM | < 59 nM | C=CC(=O)N1CCc2c(sc3ncnc(N[C@H](COCc4cccc(OC)c4)c4ccccc4)c23)C1 |
